Measured values taken from ChEMBL document CHEMBL1201862, “PubChem BioAssay data set” (2004).
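1) Cells in 96-well plates. 2) Compound, 48 h, 5 concentrations. 3) Linear interpolation between surrounding doses. 4) Unreached endpoint = highest concentration. GI50: concentration for 50% inhibition of growth.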 Active and inactive are the calls of the source. Rule as the data show it: active = GI50 up to about 1.1 µM and inactive = higher.

Key:
Test in all cases: DTP human tumour cell line panel, 48 h
[1] = tested on: DLD-1
[2] = tested on: HCC 2998
[3] = tested on: HCT-15
[4] = tested on: HOP-62
[5] = tested on: LOX IMVI
[6] = tested on: OVCAR-3
[7] = tested on: OVCAR-5
[8] = tested on: SF-295
[9] = tested on: SK-MEL-2
[10] = tested on: UACC-62
[11] = tested on: UO-31
[12] = tested on: 786-0
[13] = tested on: BT-549
[14] = tested on: DU-145
[15] = tested on: Hs-578T
[16] = tested on: MDA-MB-231
[17] = tested on: MDA-MB-435
[18] = tested on: MDA-N
[19] = tested on: PC-3
[20] = tested on: T47D

With CC(C)NC(=O)OCc1nnn2c1CCC2 the GI50 [1] was > 100 µM (inactive), the GI50 [2] was > 100 µM (inactive) and the GI50 [3] was greater than 100 µM. For the same molecule, the GI50 [4] was > 100 µM (inactive), the GI50 [5] was > 100 µM (inactive) and the GI50 [6] was > 100 µM (inactive). The GI50 [7] was > 100 µM (inactive), the GI50 [8] was > 100 µM (inactive) and the GI50 [9] was > 100 µM (inactive). The GI50 [10] was > 100 µM (inactive) and the GI50 [11] was > 100 µM (inactive).
In the case of Cc1nc(N(CCO)CCO)c2sc(=S)n(-c3ccccc3)c2n1, the GI50 [1] is reported as > 100 µM (inactive), the GI50 [2] is reported as > 100 µM (inactive) and the GI50 [4] is reported as > 100 µM (inactive). The GI50 [6] was > 100 µM (inactive), the GI50 [7] was > 100 µM (inactive) and the GI50 [8] was > 100 µM (inactive). For the same molecule, the GI50 [9] was > 100 µM (inactive), the GI50 [10] was > 100 µM (inactive) and the GI50 [11] was > 100 µM (inactive).
In the case of Cc1c(Cc2ccccc2)n(COCCCO)c(=O)[nH]c1=O, the GI50 [12] is reported as > 100 µM (inactive), the GI50 [13] is reported as > 100 µM (inactive) and the GI50 [14] is reported as > 100 µM (inactive). The GI50 [2] was > 100 µM (inactive), the GI50 [3] was greater than 100 µM and the GI50 [4] was > 100 µM (inactive). The GI50 [15] was > 100 µM (inactive), the GI50 [5] was > 100 µM (inactive) and the GI50 [16] was > 100 µM (inactive). The GI50 [17] was > 100 µM (inactive), the GI50 [18] was > 100 µM (inactive) and the GI50 [6] was > 100 µM (inactive). For the same molecule, the GI50 [7] was > 100 µM (inactive), the GI50 [19] was > 100 µM (inactive) and the GI50 [8] was > 100 µM (inactive). For the same molecule, the GI50 [9] was > 100 µM (inactive), the GI50 [20] was > 100 µM (inactive) and the GI50 [10] was > 100 µM (inactive). The GI50 [11] was > 100 µM (inactive).
C=C(/C=C/C=C(/CCC=C(C)C)COC(C)=O)[C@@H]1CC[C@]2([C@H](CCCO)/C(=C(/C)C=O)CC[C@]2(C)O)[C@@H]1O was tested, and the GI50 [1] was 11.9 µM (inactive), the GI50 [2] was 7.4 µM (inactive) and the GI50 [3] was 14.5 µM. The GI50 [5] was 10.4 µM (inactive), the GI50 [7] was 39 µM (inactive) and the GI50 [8] was 0.973 µM (active). For the same molecule, the GI50 [9] was 17.9 µM (inactive) and the GI50 [11] was 12.7 µM (inactive).
In the case of C=C1CC(OC)(C(OC)C(=O)N[C@H]2OCO[C@H]3C2O[C@H](C[C@@H](COC)OC)C(C)(C)C3OC)O[C@H](C)[C@@H]1C (some centres not stated), the GI50 [1] is reported as 0.805 µM (active), the GI50 [3] is reported as 0.8 µM and the GI50 [4] is reported as 1.04 µM (active). The GI50 [5] was 0.617 µM (active), the GI50 [6] was 0.755 µM (active) and the GI50 [7] was 1.42 µM (inactive). The GI50 [8] was 0.851 µM (active), the GI50 [9] was 1.15 µM (inactive) and the GI50 [10] was 1.01 µM (active). For the same molecule, the GI50 [11] was 0.759 µM (active).
With COC12OC3(C4OC41)C(C(=O)O[C@H]3CO[Si](C)(C)C(C)(C)C)C2C(=O)Oc1ccccc1 (some centres not stated) the GI50 [12] was > 100 µM (inactive), the GI50 [13] was 0.991 µM (active) and the GI50 [14] was > 100 µM (inactive). For the same molecule, the GI50 [2] was > 100 µM (inactive), the GI50 [3] was greater than 100 µM and the GI50 [4] was > 100 µM (inactive). The GI50 [15] was > 100 µM (inactive), the GI50 [5] was > 100 µM (inactive) and the GI50 [16] was 57.3 µM (inactive). For the same molecule, the GI50 [17] was > 100 µM (inactive), the GI50 [18] was > 100 µM (inactive) and the GI50 [6] was > 100 µM (inactive). For the same molecule, the GI50 [7] was > 100 µM (inactive), the GI50 [19] was > 100 µM (inactive) and the GI50 [8] was > 100 µM (inactive). For the same molecule, the GI50 [9] was > 100 µM (inactive), the GI50 [20] was > 100 µM (inactive) and the GI50 [10] was > 100 µM (inactive). The GI50 [11] was > 100 µM (inactive).
Nc1ccc2c(c1)C1=NNC(=O)CC1C2 (configuration not stated) was tested, and the GI50 [1] was > 100 µM (inactive), the GI50 [2] was > 74.1 µM (inactive) and the GI50 [3] was greater than 100 µM. For the same molecule, the GI50 [4] was > 100 µM (inactive), the GI50 [5] was > 100 µM (inactive) and the GI50 [6] was > 31.6 µM (inactive). The GI50 [7] was > 92.5 µM (inactive), the GI50 [8] was > 100 µM (inactive) and the GI50 [9] was > 100 µM (inactive). For the same molecule, the GI50 [10] was > 100 µM (inactive) and the GI50 [11] was > 100 µM (inactive).
In the case of O=C1C2c3[nH]c4ccccc4c3C3CCSCC3C2C(=O)N1c1ccccc1 (configuration not stated), the GI50 [12] is reported as > 100 µM (inactive), the GI50 [1] is reported as > 100 µM (inactive) and the GI50 [3] is reported as greater than 100 µM. The GI50 [4] was > 100 µM (inactive), the GI50 [5] was > 100 µM (inactive) and the GI50 [6] was > 100 µM (inactive). For the same molecule, the GI50 [7] was > 100 µM (inactive), the GI50 [8] was > 100 µM (inactive) and the GI50 [9] was > 100 µM (inactive). The GI50 [10] was > 100 µM (inactive) and the GI50 [11] was > 100 µM (inactive).
With CC(=O)O[C@H]1CC[C@@]2(C)[C@H](CC[C@@H]3[C@@H]2CC[C@]2(C)[C@@H](c4ccc(=O)oc4)C[C@H]4O[C@]342)C1 the GI50 [1] was 0.354 µM (active), the GI50 [2] was 1.33 µM (inactive) and the GI50 [3] was 1.08 µM. For the same molecule, the GI50 [4] was 0.521 µM (active), the GI50 [5] was 0.904 µM (active) and the GI50 [6] was 0.338 µM (active). For the same molecule, the GI50 [7] was 4.8 µM (inactive), the GI50 [8] was 0.515 µM (active) and the GI50 [9] was 2.7 µM (inactive). For the same molecule, the GI50 [10] was 1.05 µM (active) and the GI50 [11] was 0.791 µM (active).
In the case of CC(=O)NC1=C(C)C(=O)c2c(nc3n2CCC3OC(=O)c2ccccc2)C1=O (configuration not stated), the GI50 [12] is reported as 4.3 µM (inactive), the GI50 [1] is reported as 1.81 µM (inactive) and the GI50 [2] is reported as 4.81 µM (inactive). For the same molecule, the GI50 [4] was 2.34 µM (inactive), the GI50 [5] was 1.51 µM (inactive) and the GI50 [6] was 0.223 µM (active). The GI50 [7] was 1.99 µM (inactive), the GI50 [8] was 1.51 µM (inactive) and the GI50 [9] was 1.7 µM (inactive). The GI50 [10] was 1.92 µM (inactive) and the GI50 [11] was 2.82 µM (inactive).
In the case of O=C1CCCCCCCCCCOC(=O)CCCCCCCCCCO1, the GI50 [12] is reported as > 100 µM (inactive), the GI50 [1] is reported as > 100 µM (inactive) and the GI50 [2] is reported as > 100 µM (inactive). The GI50 [3] was greater than 100 µM, the GI50 [4] was > 100 µM (inactive) and the GI50 [5] was > 100 µM (inactive). The GI50 [6] was > 100 µM (inactive), the GI50 [7] was > 100 µM (inactive) and the GI50 [8] was > 100 µM (inactive). For the same molecule, the GI50 [9] was > 100 µM (inactive), the GI50 [10] was > 100 µM (inactive) and the GI50 [11] was > 100 µM (inactive).
In the case of CC12CCC3C(CCC4CC(OC(=O)Cc5ccc(N(CCCl)CCCl)cc5)CCC43C)C1CCC(=O)N2 (configuration not stated), the GI50 [12] is reported as 15.5 µM (inactive), the GI50 [1] is reported as 18.7 µM (inactive) and the GI50 [2] is reported as 18.9 µM (inactive). For the same molecule, the GI50 [3] was 14.7 µM, the GI50 [6] was 18.2 µM (inactive) and the GI50 [8] was 16.3 µM (inactive). The GI50 [9] was 15.5 µM (inactive) and the GI50 [11] was 19.7 µM (inactive).
With Cc1nc2ccccc2c(=O)n1CC(=O)O the GI50 [1] was > 100 µM (inactive), the GI50 [2] was > 100 µM (inactive) and the GI50 [3] was greater than 100 µM. The GI50 [4] was > 100 µM (inactive), the GI50 [5] was > 100 µM (inactive) and the GI50 [6] was > 100 µM (inactive). The GI50 [7] was > 100 µM (inactive), the GI50 [8] was > 100 µM (inactive) and the GI50 [9] was > 100 µM (inactive). For the same molecule, the GI50 [10] was > 100 µM (inactive) and the GI50 [11] was > 100 µM (inactive).
O=C(c1ccccc1)c1cc(Cl)ccc1NCn1nnc2ccccc21 was tested, and the GI50 [12] was > 100 µM (inactive), the GI50 [1] was > 100 µM (inactive) and the GI50 [2] was 47.8 µM (inactive). The GI50 [3] was 42.8 µM, the GI50 [4] was > 100 µM (inactive) and the GI50 [5] was 73.3 µM (inactive). The GI50 [6] was 93.3 µM (inactive), the GI50 [8] was 85.3 µM (inactive) and the GI50 [9] was 29 µM (inactive). The GI50 [10] was > 100 µM (inactive) and the GI50 [11] was 35.8 µM (inactive).
